Reference: patent publication US20190297890A1, “FUNGICIDAL COMPOUNDS AND MIXTURES FOR FUNGAL CONTROL IN CEREALS” (Dow AgroSciences LLC, priority 2016, published 2019)

Test system: Zymoseptoria tritici (SEPTTR)
Assay: Field assessment of Zymoseptoria tritici (SEPTTR) in wheat, three field trials
Assay type: in vivo, Zymoseptoria tritici on winter wheat (TRZAW)
Details: average over 3 field trials
Excerpt: Treatments consisted of the compound of Formula I and chlorothalonil either using individually or as a two-way mixture with the compound of Formula I. The compound of Formula I was applied with Agnique BP-420 (50% w/w at 0.3% v/v) at 75 and 150 g ai/ha and chlorothalonil (Bravo 500) was applied at 375 and 500 g ai/ha. Commercial standards used in the studies were Fluxapyroxad (Imtrex), applied at 100 g ai/ha, and Metconazole+Fluxapyroxad (Librax), applied at 161 g ai/ha.
Field Assessment of Zymoseptoria tritici (SEPTTR) in Wheat:
Fungicidal treatments containing the compound of Formula I and chlorothalonil, either individually or as a two way mixture, were assessed against leaf spot of wheat (SEPTTR) in three separate field trials. In the first trial, fungicidal treatments were applied at BBBCH37 (curative, 3% infection at application on L3) growth stage of winter wheat (TRZAW, Dinosor variety) under naturally occurring infection with SEPTTR. The treatments were part of an experimental trial designed as a randomized complete block with four replications and a plot of approximately 1×6 m. Treatments were applied at water volume of 200 L/ha, using a backpack plot sprayer (BKPCKENG, FLATFANA nozzle) and pressurized at 200 kPa.
In the second trial, fungicidal treatments were applied twice at BBCH32 (curative, 25% infection at application on L5) and BBBCH37-39 (5% infection at application on L3) growth stages of winter wheat (TRZAW, Consort variety) under naturally occurring infection with SEPTTR. The treatments were part of an experimental trial designed as a randomized complete block with four replications and a plot of approximately 1×2 m. Treatments were applied at water volume of 200 L/ha, using a backpack plot sprayer (BKPCKAIR, Flat fan nozzle) and pressurized at 210 kPa.
In the final trial, fungicidal treatments were applied twice at BBCH32 (protective, 15% infection at application on L6) and BBBCH37-39 (12% infection at application on L5) growth stages of winter wheat (TRZAW, Smaragd variety) under naturally occurring infection with SEPTTR. […]
Disease severity (percentage of visual diseased foliage on whole plot or leaves) in […] was recorded following EPPO PP1/26 guideline prescriptions. Area under the disease progress curve (AUDPC) was calculated for each plot in both trials using the sets of recorded severity data. Relative AUDPC (% control based on AUDPC) was calculated as percent of the nontreated control. Final results for the control of leaf spot of wheat by the compound of Formula I, chlorothalonil, and mixtures are reported as an average of the relative AUDPC calculated over all three field trials. […]

Compound | SEPTTR % Control based on AUDPC (375 g ai/ha) | SEPTTR % Control based on AUDPC (500 g ai/ha) | SEPTTR % Control based on AUDPC (75 g ai/ha, with Agnique BP-420 (50% w/w at 0.3% v/v)) | SEPTTR % Control based on AUDPC (150 g ai/ha, with Agnique BP-420 (50% w/w at 0.3% v/v))
N#Cc1c(Cl)c(Cl)c(Cl)c(C#N)c1Cl [Chlorothalonil, tetrachloroisophthal-onitrile] | 31.8% | 37.8% |  | 
N#Cc1ccc(Oc2ccc(C(F)(F)C(O)(Cn3nc[nH]c3=S)c3ccc(F)cc3F)nc2)cc1 (stereo not shown) [Compound I, 4-((6-(2-(2,4-difluorophenyl)-1,1-difluoro-2-hydroxy-3-(5-thioxo-4,5-dihydro-1H-1,2,4-triazol-1-yl)propyl)pyridin-3-yl)oxy)benzonitrile] |  |  | 61.2% | 72.2%
